Source: paper PMC12498190, “A Photocaged N‐Phosphonopiperidinone as a Selective Photo‐Cleavable DPP8/9 Inhibitor” (Chembiochem, 2025)

Experiments:
DPP9 = DPP9 (Homo sapiens, UniProt Q86TI2); test: In vitro gel-based competitive ABPP in HEK293 cell lysates, 100 kDa band; set-up: endogenous in cells; host or cells: HEK293 (Cytion, Germany, 300192); details: HEK293 lysate; 10 µM probe, 1 h; ca. 100 kDa (DPP9) and 70 kDa (PREP); regardless of irradiation
Protocol: Therefore, HEK293 cell lysates were pre‐incubated with 10 µM 5 or DMSO vehicle control for 30 min, followed by a labeling reaction with 2 µM of the serine hydrolase‐specific ABP fluorophosphonate‐alkyne (≡FP) or 10 µM 2 (Figure 2B). […] Of note, this band has been previously assigned as DPP9 (DPP8 would migrate in the same range, but is only expressed at low levels in the used cell line and therefore cannot be visualized by this approach).^[ [36] ^, [37] ^] […] Again, this labeling was observed regardless of prior irradiation. Subsequently, the competitive labeling experiment was conducted by pre‐incubation with compound 5, with or without subsequent irradiation.
(§1) Figure 2 Competitive ABPP with photo‐cleavable inhibitor 5 in HEK293 cells. A) Schematic overview of a competitive ABPP experiment. A proteome is pre‐incubated with a competitor, followed by a labeling reaction with an activity‐based probe (ABP). In the case of a photocaged inhibitor, the active compound can be released via irradiation. Target proteins of the competitor cannot be bound by the ABP, resulting in an absence of the respective protein band in‐gel analysis. Created in BioRender. Najdzion, M. (2025) https://BioRender.com/84zn8cb B) Gel‐based competitive ABPP experiment in HEK293 cell lysates with the broadband serine hydrolase ABP ≡FP or the DPP8/9‐directed ABP 2 and the photocaged inhibitor 5, at the indicated concentrations, after or without prior irradiation with green light for 5 min. The corresponding pre‐incubation time for 5 was 30 min. C) Corresponding in situ competitive ABPP experiment in HEK293 cell culture, again with 10 µM 2 for 1 h. Labeling was competed by pre‐incubation with 20 µM 5 for 1 h, followed by an activation of the photocaged inhibitor by irradiation for 5 min with a green LED lamp, if applicable. D) Green light treatment has no cytotoxic effect. HEK293 cells were irradiated with a green LED lamp in the presence of 0.5% DMSO for 5 min (‘light’), and cell viability was measured after 24 h. […] Data was normalized to the non‐irradiated control (‘dark’). E) Green light treatment leads to the release of the active DPP8/9 inhibitor. HEK293 cells were incubated with compound 1 or 5 for 24 h. For both compounds, cell viability was measured under ‘dark’ (not irradiated) and ‘light’ (irradiated for 5 min with a green LED lamp after the addition of the inhibitor) conditions. […] Data was normalized to the non‐irradiated DMSO control.
For in vitro ABPP, cell lysates were generated from HEK293 cells grown on a 10 cm tissue dish. […] The cell lysates were cleared via centrifugation (30 min, 20,817 × g, 4 °C), and protein concentration was determined with a modified Bradford assay using Roti‐Nanoquant (Carl Roth, Germany). […]

HEK293 cells = test: Cell viability assay (MTT); assay type: cell-based, human; details: low micromolar range, 24 h
Protocol: as §1
(§2) In order to validate target engagement in living cells and potential cytotoxic effects of green light treatment, we determined cell viability of HEK293 cells after 24 h inhibitor treatment with 5 with or without 5 min green light irradiation, as the application of DPP8/9 inhibitors at high concentrations and thus elimination of any residual DPP8/9 activity results in cytotoxicity.^[ [38], [39] ^– [40] ^] As a control, effects of green light treatment on cell viability were examined in the absence of any inhibitor after 24 h, again with or without 5 min irradiation (Figure 2D). […] Of note, no additional effect of the photocage on cell viability was observed. In summary, our cell viability studies confirm target engagement in live cells exclusively after photorelease, thereby again confirming the suitability of the photocaged DPP8/9 inhibitor 5 as a cell biological tool compound.
(§3) To investigate the cytotoxicity of compounds, 2 × 10^4 HEK293 cells were cultured in DMEM (+/+) on 96‐well flat‐bottom cell culture plates (Sarstedt, Germany) as described above. After 24 h, cells were treated with indicated concentrations of compounds (final DMSO concentration: 0.5%) and, if applicable, irradiated with a green LED lamp (λ = 520−530 nm; Eurolite, Germany) for 5 min. Control cells were treated with DMSO. Cell viability was measured 24 h after compound treatment. To this end, 25 µL Thiazolyl Blue Tetrazolium Bromide (MTT) solution (5 mg mL^−1 MTT (Sigma Aldrich, USA) in PBS (Gibco, USA)) was added to each well directly into the medium. After 3 h of incubation at 37 °C, the medium was removed and formazan crystals were dissolved by adding 150 µL DMSO (1 h, 37 °C, gentle shaking), followed by an absorbance measurement at 570 and 630 nm as a reference using a Tecan Spark 10 M multimode microplate reader (Tecan Group Ltd., Switzerland). Each experiment was performed with five replicates. Relative cell viability was expressed as a percentage relative to the DMSO‐treated control cells.

[1] = Cell viability assay (MTT); assay type: cell-based, human; details: human, HEK293 cells, regardless of irradiation, read-out: Remaining viability
Protocol: as §1, §2, §3

[2] = assay type: physicochemical; details: longer irradiation times, green LED 520-530 nm, up to 5 min
Protocol: With 5 in our hands, we then started our probe characterization by determining the velocity of the photorelease reaction, i.e., the light‐triggered cleavage of the photocage, thereby delivering again the “active” inhibitor 1. To this end, a 50 µM solution of 5 in 10% acetonitrile in MS‐grade water was irradiated with a green LED lamp (λ = 520‐530 nm, 30 W) for the indicated time periods, and the release of the active inhibitor 1 was quantified via liquid chromatography‐mass spectrometry (LC–MS) analysis (Figure 1A). […] After 3 min, cleavage was quantitative (>99%). Importantly, the only products observed were the desired ‘free’ inhibitor 1 and the cleaved photogroup, indicating a clean activation to 1.
Figure 1 DPP inhibition by photo‐cleavable inhibitors. A) LC‐MS analysis of the photocleavage reaction of 5 after irradiation with green light. 50 µM of compound 5 was irradiated with a green LED lamp (λ = 520‐530 nm, 30 W) for up to 5 min, and the resulting reaction mixture was analyzed via LC‐MS. […] B) Resulting quantification of the photolysis of 5 based on peak areas depicted in A) (n = 3 technical replicates). […] Enzyme activity was determined by measuring the release of AMC from the substrate GP‐AMC. […]
Compound 5 was dissolved in DMSO. In order to quantify the effect of irradiation time on photocleavage of the BODIPY moiety, 50 µL aliquots of a 50 µM solution of 5 in 10% acetonitrile (ACN; VWR Chemicals, USA) in MS‐grade water (VWR Chemicals, USA) were irradiated for 0–5 min with a green LED lamp (λ = 520–530 nm, 30 W; Eurolite, Germany) at room temperature (RT) and gentle shaking (final DMSO concentration: 0.5%).
Quantification of inhibitor release was then determined via LC‐MS on an LTQ XL linear ion trap mass spectrometer (ITMS; Thermo Fisher Scientific, USA) coupled to a DIONEX UltiMate 3000 system (Thermo Fisher Scientific, USA), operated using Xcalibur software 4.4.16.14. […] Quantification was done using Freestyle v1.6. based on the UV spectra (λ = 254 nm) using the Avalon peak detection algorithm. […]

Sequence of DPP9 (Q86TI2 whole entry): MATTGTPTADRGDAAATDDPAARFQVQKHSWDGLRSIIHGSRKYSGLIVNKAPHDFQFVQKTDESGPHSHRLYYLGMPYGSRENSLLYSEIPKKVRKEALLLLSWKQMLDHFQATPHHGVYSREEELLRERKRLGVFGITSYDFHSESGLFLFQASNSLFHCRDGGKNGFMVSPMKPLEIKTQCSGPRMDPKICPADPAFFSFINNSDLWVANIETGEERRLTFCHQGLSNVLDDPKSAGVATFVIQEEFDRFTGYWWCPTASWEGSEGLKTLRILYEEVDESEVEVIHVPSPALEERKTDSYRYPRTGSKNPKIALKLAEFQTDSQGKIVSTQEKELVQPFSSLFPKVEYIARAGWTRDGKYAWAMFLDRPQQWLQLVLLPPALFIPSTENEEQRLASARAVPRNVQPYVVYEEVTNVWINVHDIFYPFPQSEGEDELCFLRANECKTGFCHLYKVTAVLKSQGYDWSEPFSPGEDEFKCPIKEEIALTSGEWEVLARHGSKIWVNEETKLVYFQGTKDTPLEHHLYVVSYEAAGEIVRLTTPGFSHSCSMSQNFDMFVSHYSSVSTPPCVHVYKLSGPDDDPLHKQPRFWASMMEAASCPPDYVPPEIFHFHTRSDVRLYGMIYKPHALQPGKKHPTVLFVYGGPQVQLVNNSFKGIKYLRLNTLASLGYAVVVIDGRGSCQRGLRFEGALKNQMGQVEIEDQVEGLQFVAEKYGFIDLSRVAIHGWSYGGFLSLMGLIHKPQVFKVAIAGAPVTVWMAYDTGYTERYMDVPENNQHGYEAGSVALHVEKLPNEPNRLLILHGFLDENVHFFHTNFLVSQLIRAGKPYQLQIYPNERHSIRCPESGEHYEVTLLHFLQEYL

Structure (SMILES) | Bands labeled by the probe in ABPP (in words) (DPP9) | Effect on cell viability (in words) (HEK293 cells) | viability at 24 h, 25 µM ([1]; 25 µM) | viability at 24 h, 50 µM ([1]; 50 µM) | Photostability under photorelease conditions (in words) [2]
C#CCCCP(=O)(OCC)N1CCC[C@H](N)C1=O (some centres unmarked) [Compound 2] | two bands |  |  |  | 
CCCCCc1ccc(SCCP(=O)(OCC)N2CCC[C@H](N)C2=O)cc1 (some centres unmarked) [Compound 1] |  | did not significantly affect cell viability | ~65% | ~15% | did not lead to further side products
